Consider 30 compounds from EP1420018A1, “Pyrido[1,2-a]benzimidazole derivatives useful in treating central nervous system disorders” (Ortho-McNeil Pharmaceutical, Inc., priority 1996, dated 1998).

Where a name gives a salt, the structure may show the parent alone. Read-outs that look alike come from different tables or passages of the source.

For experiment [1], the system named is Anxiety in the Adult Male Rat. Description: Suppression of Anxiety in the Adult Male Rat (rat conflict test). The class given is in vivo, rats. The following applies: Rattus norvegicus. The protocol:
Assay to Measure the Suppression of Anxiety in the Adult Male Rat
Male rats were deprived of water for 48 hours and were deprived of food for 24 hours prior to testing. After the first 24 hours of water deprivation, they were placed in the conflict chamber for a training period; wherein, they were allowed 200 unpunished licks from a bottle containing tap water. The experiment was run the next day. At the expected time of peak activity, the animals were placed in the chamber and allowed access to tap water. […] Their first lick initiates a 3-min test session. Subsequently, every 20th lick was punished by a 0.2-s shock delivered via the stainless-steel drinking-tube.
The Wilcoxon rank-sum test (Mann-Whitney U-test) was used to test for an increase (p<0.05, 1-tailed) in the median number of shocks in drug-treated groups, compared to a concurrently run vehicle-treated group. The biological assay is considered to be valid if the effects of a known anxiolytic (positive control) are detected, within the same experiment.

The subject of experiment [2] is metrazol-induced convulsions. The experiment can be described thus: Suppression of Metrazol-Induced Convulsions in Adult Male Mice. The format is in vivo. The following applies: Mus musculus, ip. The method, then:
Assay to Determine the Suppression of Metrazol-Induced Convulsions in Adult Male Mice
Male CD1 mice, were fasted at least 16 hours, were divided into equal groups and test compounds or vehicle were administered parenterally. Water was not withheld except during the period of observations. […] Metrazol was dissolved in 0.9% sodium chloride solution, and its dose volume was 10 ml/kg. Animals were housed individually for observation of clonic convulsions, tonic convulsions and death for a period of 30 min. […] The biological assay was considered to be valid if the effects of a known anticonvulsant (positive control) were detected, within the same experiment. Activity was reported as percent reduction of clonic convulsions from the vehicle group.

In experiment [3] the target is benzodiazepine site of the GABA-A receptor. The experiment can be described thus: Benzodiazepine Receptor Binding Assay (inhibition of 3H-flunitrazepam binding). The following applies: read-out: GABAA Receptor Binding IC50.
Experiment [4] relates to metrazol-induced convulsions. Description: Suppression of Metrazol-Induced Convulsions in Adult Male Mice. The format is in vivo. As to conditions: Mus musculus, po.
Where [5] appears, read: ip, rat, ip, read-out: Rat Conflict (MED, mg/kg) ip.
The mark [6] stands for this setting: po, rat, po, read-out: Rat Conflict (MED, mg/kg) po.
Where [7] appears, read: ip, minimum effective dose, increase in shocks tolerated, >10 = active dose not determined, read-out: Rat Conflict (MED, mg/kg) ip.
The mark [8] stands for this setting: po, minimum effective dose, increase in shocks tolerated, >10 = active dose not determined, read-out: Rat Conflict (MED, mg/kg) po.
[9] abbreviates: block of clonic convulsions, male CD1 mice, >30 = active dose not determined.
[10] abbreviates: inhibition of 3H-flunitrazepam (ca. 3 nM) binding to membranes, 25°C, over 10,000 = not active.

Regarding `CN(C)CCCN1C2=C(C(=O)Nc3c(F)cccc3F)C(=O)CCN2c2ccc(F)cc21` [Compound 66], the minimal effective dose in experiment [1] (setting [5]) was > 10 mg/kg. Further, the ED50 in experiment [2] (mouse) was > 30 mg/kg; in experiment [4] (mouse) it was > 10 mg/kg. In experiment [3], the concentration for half-maximal inhibition (IC50) amounted to 83.7 nM.
Consider `CN(C)CCCN1C2=C(C(=O)Nc3ccccc3F)C(=O)CCN2c2ccc(F)cc21` [Compound 67], for which the results for the minimal effective dose in experiment [1] (setting [5]) and in experiment [1] (setting [6]) were 10 mg/kg and > 10 mg/kg, respectively. The ED50 is 3 mg/kg in experiment [2] (mouse) and 30 mg/kg in experiment [4] (mouse). Besides, the IC50 in experiment [3] stood at 3.29 nM.
For `CC(C)N(CCN1C2=C(C(=O)Nc3c(F)cccc3F)C(=O)CCN2c2ccc(F)cc21)C(C)C` [Compound 68], the minimal effective dose in experiment [1] (setting [5]) is 10 mg/kg. The results for the ED50 in experiment [2] (mouse) and in experiment [4] (mouse) were > 10 mg/kg and > 30 mg/kg, respectively. Further, in experiment [3], the IC50 is 44.6 nM.
The like results for `CC(C)N(CCN1C2=C(C(=O)Nc3ccccc3F)C(=O)CCN2c2ccc(F)cc21)C(C)C` [Compound 69] were, in that order, > 10 mg/kg, 1 mg/kg, > 30 mg/kg and 78.4 nM.
As to `CCN(CC)CCN1C2=C(C(=O)Nc3c(F)cccc3F)C(=O)CCN2c2ccc(F)cc21` [Compound 70], the minimal effective dose in experiment [1] (setting [5]) is > 10 mg/kg. Moreover, the values for the ED50 in experiment [2] (mouse) and in experiment [4] (mouse) were > 10 mg/kg and > 30 mg/kg, respectively. The IC50 in experiment [3] was 267 nM.
`CCN(CC)CCN1C2=C(C(=O)Nc3ccccc3F)C(=O)CCN2c2ccc(F)cc21` [Compound 71]: the minimal effective dose in experiment [1] (setting [5]) was < 10 mg/kg; in experiment [1] (setting [6]) it was > 10 mg/kg. For the same compound, the ED50 turned out to be 2 mg/kg in experiment [2] (mouse) and 10 mg/kg in experiment [4] (mouse). Moreover, the IC50 in experiment [3] amounted to 74.5 nM.
For the compound `CN(C)CCN1C2=C(C(=O)Nc3ccncc3)C(=O)CCN2c2ccccc21` [Compound 72], the minimal effective dose in experiment [1] (setting [5]) is > 10 mg/kg. The figures for the ED50 in experiment [2] (mouse) and in experiment [4] (mouse) were > 10 mg/kg and > 30 mg/kg, respectively. Also, the IC50 in experiment [3] was 3840 nM.
Take `CN(C)CCN1C2=C(C(=O)Nc3c(F)cccc3F)C(=O)CCN2c2ccc(F)cc21` [Compound 73]: in experiment [1] (setting [5]), the minimal effective dose was > 10 mg/kg. Besides, the ED50 in experiment [2] (mouse) is > 10 mg/kg; in experiment [4] (mouse), > 30 mg/kg. In addition, in experiment [3], the IC50 was 32.1 nM.
With `CN(C)CCN1C2=C(C(=O)Nc3ccccc3F)C(=O)CCN2c2ccc(F)cc21` [Compound 74, 7-Fluoro-1,2-dihydro-5-(2-dimethylaminoethyl)-3-oxo-N-(2-fluorophenyl)pyrido[1,2-a]benzimidazole-4-carboxamide hydrochloride hydrate (4:4:1)], the minimal effective dose in experiment [1] (setting [5]) was < 10 mg/kg; in experiment [1] (setting [6]) it was 3 mg/kg. For the same compound, the ED50 in experiment [2] (mouse) was 0.5 mg/kg; in experiment [4] (mouse) it was < 3 mg/kg. For the same compound, the IC50 in experiment [3] was determined as 49.9 nM.
Turning to `O=C1CCN2C(=C1C(=O)Nc1ccccc1F)N(CCNC(=O)c1cccc(C(F)(F)F)c1)c1cc(F)ccc12` [Compound 75], in experiment [1] (setting [6]), the minimal effective dose was > 10 mg/kg. The ED50 was > 1 mg/kg in experiment [2] (mouse) and > 30 mg/kg in experiment [4] (mouse). In addition, the 50% inhibitory concentration (IC50) in experiment [3] was found to be 9.5 nM.
Taken in the same sequence, the figures for `O=C1CCN2C(=C1C(=O)Nc1ccccc1F)N(CCNC(=O)c1ccccc1C(F)(F)F)c1cc(F)ccc12` [Compound 76] were > 10 mg/kg, > 1 mg/kg, > 30 mg/kg and 40.9 nM.
Turning to `N#CCN1C2=C(C(=O)NC3CC3)C(=O)CCN2c2ccc(F)cc21` [Compound 77], the minimal effective dose in experiment [1] (setting [6]) was > 10 mg/kg. Moreover, the ED50 in experiment [2] (mouse) was < 1 mg/kg; in experiment [4] (mouse), > 30 mg/kg. For the same compound, in experiment [3], the IC50 was 0.86 nM.
With `N#CCN1C2=C(C(=O)NC3CCCCC3)C(=O)CCN2c2ccc(F)cc21` [Compound 78], in experiment [1] (setting [6]), the minimal effective dose was > 10 mg/kg. Moreover, the ED50 was > 1 mg/kg in experiment [2] (mouse) and > 30 mg/kg in experiment [4] (mouse). Moreover, the IC50 in experiment [3] stood at 30 nM.
Taken in the same sequence, the figures for `CC(C)NC(=O)NCCN1C2=C(C(=O)Nc3ccccc3F)C(=O)CCN2c2ccc(F)cc21` [Compound 79] were > 10 mg/kg, > 1 mg/kg, > 30 mg/kg and 10.5 nM.
The like results for `CC(C)(C)OC(=O)N1CCN(CCN2C3=C(C(=O)Nc4ccccc4F)C(=O)CCN3c3ccc(F)cc32)CC1` [Compound 80] were, in that order, > 10 mg/kg, > 1 mg/kg, > 30 mg/kg and 3.7 nM.
For `O=C1CCN2C(=C1C(=O)Nc1ccccc1F)N(CCN1CCNCC1)c1cc(F)ccc12` [Compound 81], in experiment [1] (setting [6]), the minimal effective dose was > 10 mg/kg. Moreover, the ED50 in experiment [2] (mouse) was > 1 mg/kg; in experiment [4] (mouse), > 30 mg/kg. Besides, the IC50 in experiment [3] was 12.7 nM.
On to `CN(C)c1ccc(CCN2C3=C(C(=O)Nc4c(F)cccc4F)C(=O)CCN3c3ccc(F)cc32)cc1` [Compound 83], for which, in experiment [1] (setting [5]), the minimal effective dose was > 10 mg/kg. Also, the results for the ED50 in experiment [2] (mouse) and in experiment [4] (mouse) were 3 mg/kg and < 30 mg/kg, respectively. Besides, in experiment [3], the IC50 worked out at 36.2 nM.
Taken in the same sequence, the figures for `CN(C)c1ccc(CCN2C3=C(C(=O)Nc4ccccc4F)C(=O)CCN3c3ccc(F)cc32)cc1` [Compound 84] were > 10 mg/kg, 1 mg/kg, < 30 mg/kg and 8.52 nM.
As for `CN1CCCC(N2C3=C(C(=O)Nc4ccccc4F)C(=O)CCN3c3ccc(F)cc32)C1` (centres unmarked) [Compound 87], the minimal effective dose in experiment [1] (setting [7]) and in experiment [1] (setting [8]) was > 10 mg/kg throughout. For the same compound, the ED50 in experiment [2] (setting [9]) amounted to 3 mg/kg; in experiment [4] (setting [9]), 10 mg/kg. In addition, in experiment [3] (setting [10]), the IC50 turned out to be 30.7 nM.
Take `O=C1CCN2C(=C1C(=O)Nc1ccccc1F)N(CCN1CCOCC1)c1cc(F)ccc12` [Compound 88]: the minimal effective dose was > 10 mg/kg in experiment [1] (setting [7]) and 10 mg/kg in experiment [1] (setting [8]). The values for the ED50 in experiment [2] (setting [9]) and in experiment [4] (setting [9]) were 0.1 mg/kg and 7 mg/kg, respectively. The IC50 in experiment [3] (setting [10]) amounted to 3.67 nM.
As to `N#CCN1C2=C(C(=O)Nc3ccccc3F)C(=O)CCN2c2ccc(F)cc21` [Compound 89], the minimal effective dose in experiment [1] (setting [8]) came to 1 mg/kg. In addition, the ED50 in experiment [2] (setting [9]) was < 1 mg/kg; in experiment [4] (setting [9]) it was 0.5 mg/kg. The IC50 in experiment [3] (setting [10]) amounted to 1.84 nM.
The like results for `COc1cccc(NC(=O)C2=C3N(CC#N)c4ccccc4N3CCC2=O)c1` [Compound 90] were, in that order, 1 mg/kg, < 1 mg/kg, 0.5 mg/kg and 6.04 nM.
For `CCOCN1C2=C(C(=O)Nc3ccc(OC(=O)OC)cc3F)C(=O)CCN2c2ccc(F)cc21` [Compound 100], in experiment [1] (setting [6]), the minimal effective dose is ~1 mg/kg. Also, the ED50 was ≥ 1 mg/kg in experiment [2] (mouse) and 3 to 30 mg/kg in experiment [4] (mouse). Besides, in experiment [3], the IC50 worked out at 4.35 nM.
Take `CCOCN1C2=C(C(=O)Nc3ccc(C)s3)C(=O)CCN2c2ccccc21` [Compound 101]: in experiment [1] (setting [6]), the minimal effective dose was determined as 3 mg/kg. Also, the figures for the ED50 in experiment [2] (mouse) and in experiment [4] (mouse) were < 1 mg/kg and < 3 mg/kg, respectively. The IC50 in experiment [3] was found to be 0.95 nM.
Consider `COCCN1C2=C(C(=O)Nc3nccs3)C(=O)CCN2c2ccccc21` [Compound 102], for which the minimal effective dose in experiment [1] (setting [6]) came out at 10 mg/kg. The values for the ED50 in experiment [2] (mouse) and in experiment [4] (mouse) were ~1 mg/kg and ~6 mg/kg, respectively. Also, the IC50 in experiment [3] stood at 8.82 nM.
Taken in the same sequence, the figures for `CCOCN1C2=C(C(=O)Nc3ccccc3F)C(=O)CCN2c2ccc(F)c(F)c21` [Compound 103] were 1 mg/kg, < 1 mg/kg, < 3 mg/kg and 0.55 nM.
The like results for `CCOCN1C2=C(C(=O)Nc3ccc(OC)cc3)C(=O)CCN2c2ccc(F)cc21` [Compound 104] were, in that order, 0.1 mg/kg, < 1 mg/kg, < 3 mg/kg and 1.04 nM.
The like results for `CCOCN1C2=C(C(=O)Nc3cccs3)C(=O)CCN2c2ccccc21` [Compound 105] were, in that order, 10 mg/kg, < 1 mg/kg, < 3 mg/kg and 0.84 nM.
For `COCCN1C2=C(C(=O)Nc3ccc(OC)cc3)C(=O)CCN2c2ccc(F)cc21` [Compound 106], in experiment [1] (setting [6]), the minimal effective dose is 1 mg/kg. Further, the ED50 in experiment [2] (mouse) was < 1 mg/kg; in experiment [4] (mouse), 0.3 mg/kg. For the same compound, the IC50 in experiment [3] was 4.47 nM.
The like results for `COCCN1C2=C(C(=O)Nc3ccccc3F)C(=O)CCN2c2c(O)cccc21` [Compound 108] were, in that order, > 10 mg/kg, > 1 mg/kg, ≥ 30 mg/kg and 10.4 nM.

One may read the ED50 as the dose at which the effect has come halfway, by size or by number of responders. A lower ED50 goes with greater potency. What is called IC50 is the concentration needed to halve the response being measured.
